In the experiment the target is T1, human glucagon receptor (Homo sapiens, UniProt P47871).
T1 construct: expressed in transfected cells; host or cells: BHK (baby hamster kidney) cells
The experiment in a line: Glucagon Binding Assay (III). As to conditions: BHK cell membranes, WGA SPA beads, 125I-glucagon; read-out: Glu Bd Assay (III) IC50. The essentials:
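Non-specific binding was set with 500 nM glucagon in this SPA-type binding assay using WGA beads. The receptor source was a membrane preparation, kept on ice or at 4 °C, from BHK cells transfected with the human receptor. Scintillation counts were taken after 4 hours of shaking and 8–48 hours of settling.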

T1 sequence (P47871 26-477): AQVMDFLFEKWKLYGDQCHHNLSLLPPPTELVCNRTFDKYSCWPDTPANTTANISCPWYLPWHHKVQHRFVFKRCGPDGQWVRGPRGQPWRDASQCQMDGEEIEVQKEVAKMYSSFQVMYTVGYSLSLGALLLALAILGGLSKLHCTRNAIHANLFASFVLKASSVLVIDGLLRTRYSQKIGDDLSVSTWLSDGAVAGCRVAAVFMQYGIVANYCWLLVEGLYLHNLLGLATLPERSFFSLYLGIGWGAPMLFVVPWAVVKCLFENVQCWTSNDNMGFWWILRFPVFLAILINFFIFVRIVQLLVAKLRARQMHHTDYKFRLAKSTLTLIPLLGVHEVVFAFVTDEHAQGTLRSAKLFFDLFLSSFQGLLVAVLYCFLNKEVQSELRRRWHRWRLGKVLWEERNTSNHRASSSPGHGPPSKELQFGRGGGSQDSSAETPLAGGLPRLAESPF

Turning to `O=C(Nc1nn[nH]n1)c1ccc(CN(C(=O)Cc2ccc(-c3ccccc3)cc2)c2ccc(C3CCCCC3)cc2)cc1` [Example 497, 4-{[(2-Biphenyl-4-yl-acetyl)-(4-cyclohexylphenyl)amino]methyl}-N-(2H-tetrazol-5-yl)benzamide], the 50% inhibitory concentration (IC50) stood at 589 nM.

Regarding `CC(Oc1cccc(Cl)c1)C(=O)N(Cc1ccc(C(=O)Nc2nn[nH]n2)cc1)c1ccc(C2CCCCC2)cc1` (centres unmarked) [Example 498, 4-{[[2-(3-Chlorophenoxy)propionyl]-(4-cyclohexylphenyl)amino]methyl}-N-(2H-tetrazol-5-yl)benzamide], the 50% inhibitory concentration (IC50) came out at 621 nM.

In the case of `O=C(Nc1nn[nH]n1)c1ccc(CN(C(=O)Cc2ccc3ccccc3c2)c2ccc(C3CCCCC3)cc2)cc1` [Example 499, 4-{[(4-Cyclohexylphenyl)-(2-naphth-2-ylacetyl)amino]methyl}-N-(2H-tetrazol-5-yl)benzamide], the IC50 stood at 136 nM.

`O=C(Nc1nn[nH]n1)c1ccc(CN(C(=O)/C=C/c2ccccc2Cl)c2ccc(C3CCCCC3)cc2)cc1` [Example 500, 4-{[[3-(2-Chlorophenyl)acryloyl]-(4-cyclohexylphenyl)amino]methyl}-N-(2H-tetrazol-5-yl)benzamide]: the IC50 came to 140 nM.

`O=C(Nc1nn[nH]n1)c1ccc(CN(C(=O)/C=C/c2ccccc2Br)c2ccc(C3CCCCC3)cc2)cc1` [Example 501, 4-{[[3-(2-Bromophenyl)acryloyl]-(4-cyclohexylphenyl)amino]methyl}-N-(2H-tetrazol-5-yl)benzamide]: the IC50 was found to be 217 nM.

Regarding `CC(C)(C)C1CCC(N(Cc2ccc(C(=O)Nc3nn[nH]n3)cc2)C(=O)Cc2ccc(OC(F)(F)F)cc2)CC1` (centres unmarked) [Example 502, 4-({(4-tert-Butylcyclohexyl)-[2-(4-trifluoromethoxyphenyl)acetyl]amino}methyl)-N-(2H-tetrazol-5-yl)benzamide], the half-inhibitory concentration (IC50) was determined as 28 nM.

As to `CC(C)(C)C1CCC(N(Cc2ccc(C(=O)Nc3nn[nH]n3)cc2)C(=O)/C=C/c2c(Cl)cccc2Cl)CC1` (centres unmarked) [Example 503, 4-({(4-tert-Butylcyclohexyl)-[3-(2,6-dichlorophenyl)acryloyl]amino}methyl)-N-(2H-tetrazol-5-yl)benzamide], the half-inhibitory concentration (IC50) stood at 94 nM.

For the molecule `O=C(O)CCNC(=O)c1ccc(CN(CC(c2ccccc2)c2ccccc2)C(=O)Cc2ccc(OC(F)(F)F)cc2)cc1` [Example 504, 3-[4-({(2,2-Diphenylethyl)-[2-(4-trifluoromethoxyphenyl)acetyl]amino}methyl)benzoylamino]propionic acid], the 50% inhibitory concentration (IC50) was determined as 235 nM.

For the molecule `O=C(O)CCNC(=O)c1ccc(CN(CC(c2ccccc2)c2ccccc2)C(=O)/C=C/c2c(Cl)cccc2Cl)cc1` [Example 505, 3-(4-{[[3-(2,6-Dichlorophenyl)acryloyl]-(2,2-diphenylethyl)amino]methyl}benzoylamino)propionic acid], the concentration for half-maximal inhibition (IC50) amounted to 449 nM.

For `CC(C)(C)C1CCC(N(Cc2ccc(C(=O)NCCC(=O)O)cc2)C(=O)Cc2ccc(OC(F)(F)F)cc2)CC1` (centres unmarked) [Example 506, 3-[4-({(4-tert-Butylcyclohexyl)-[2-(4-trifluoromethoxyphenyl)acetyl]amino}methyl)benzoylamino]propionic acid], the IC50 was 108 nM.

For `CC(C)Cc1ccc(C(=O)N(Cc2ccc(C(=O)Nc3nn[nH]n3)cc2)c2ccc(C3CCCCC3)cc2)cc1` [Example 507, 4-{[(4-Cyclohexylphenyl)-(4-isobutylbenzoyl)amino]methyl}-N-(2H-tetrazol-5-yl)benzamide], the 50% inhibitory concentration (IC50) was found to be 444 nM.

Turning to `O=C(Nc1nn[nH]n1)c1ccc(CN(C(=O)c2ccc(Cc3ccccc3)cc2)c2ccc(C3CCCCC3)cc2)cc1` [Example 508, 4-{[(4-Cyclohexylphenyl)-(4-benzylbenzoyl)amino]methyl}-N-(2H-tetrazol-5-yl)benzamide], the IC50 was found to be 198 nM.

For the molecule `O=C(Nc1nn[nH]n1)c1ccc(CN(C(=O)c2cccc(C(F)(F)F)c2)c2ccc(C3CCCCC3)cc2)cc1` [Example 510, 4-{[(4-Cyclohexylphenyl)-(3-trifluoromethylbenzoyl)amino]methyl}-N-(2H-tetrazol-5-yl)benzamide], the IC50 was determined as 1100 nM.

With `CC(C)Cc1ccc(C(=O)N(Cc2ccc(C(=O)Nc3nn[nH]n3)cc2)C2CCC(C(C)(C)C)CC2)cc1` (centres unmarked) [Example 511, 4-{[(4-tert-Butylcyclohexyl)-(4-isobutylbenzoyl)amino]methyl}-N-(2H-tetrazol-5-yl)benzamide], the IC50 came to 58 nM.

As for `CC(C)(C)C1CCC(N(Cc2ccc(C(=O)Nc3nn[nH]n3)cc2)C(=O)c2ccc(Cc3ccccc3)cc2)CC1` (centres unmarked) [Example 512, 4-{[(4-tert-Butylcyclohexyl)-(4-benzylbenzoyl)amino]methyl}-N-(2H-tetrazol-5-yl)benzamide], the half-maximal inhibitory concentration (IC50) amounted to 111 nM.

With `CC(C)Oc1ccc(C(=O)N(Cc2ccc(C(=O)Nc3nn[nH]n3)cc2)C2CCC(C(C)(C)C)CC2)cc1` (centres unmarked) [Example 513, 4-{[(4-tert-Butylcyclohexyl)-(4-isopropoxybenzoyl)amino]methyl}-N-(2H-tetrazol-5-yl)benzamide], the half-maximal inhibitory concentration (IC50) amounted to 144 nM.

Take `CC(C)(C)C1CCC(N(Cc2ccc(C(=O)Nc3nn[nH]n3)cc2)C(=O)c2cccc(C(F)(F)F)c2)CC1` (centres unmarked) [Example 514, 4-{[(4-tert-Butylcyclohexyl)-(3-trifluoromethylbenzoyl)amino]methyl}-N-(2H-tetrazol-5-yl)benzamide]: the IC50 turned out to be 667 nM.

Regarding `CC(C)(C)C1CCC(N(Cc2ccc(C(=O)Nc3nn[nH]n3)cc2)C(=O)c2cccc3ccccc23)CC1` (centres unmarked) [Example 515, 4-{[(4-tert-Butylcyclohexyl)-(naphth-1-ylcarbonyl)amino]methyl}-N-(2H-tetrazol-5-yl)benzamide], the IC50 worked out at 450 nM.

Take `CC(C)(C)C1CCC(N(Cc2ccc(C(=O)Nc3nn[nH]n3)cc2)C(=O)c2cccc3[nH]ccc23)CC1` (centres unmarked) [Example 516, 4-{[(4-tert-Butylcyclohexyl)-(1H-indol-4-ylcarbonyl)amino]methyl}-N-(2H-tetrazol-5-yl)benzamide]: the 50% inhibitory concentration (IC50) is 2490 nM.

Regarding `CC(C)(C)C1CCC(N(Cc2ccc(C(=O)Nc3nn[nH]n3)cc2)C(=O)Cc2ccc(S(C)(=O)=O)cc2)CC1` (centres unmarked) [Example 517, 4-({(4-tert-Butylcyclohexyl)-[2-(4-methylsulfonylphenyl)acetyl]amino}methyl)-N-(2H-tetrazol-5-yl)benzamide], the 50% inhibitory concentration (IC50) turned out to be 620 nM.

Take `CC(C)Cc1ccc(C(=O)N(Cc2ccc(C(=O)Nc3nn[nH]n3)cc2)c2ccc(N3CCCCC3)cc2)cc1` [Example 518, 4-{[(4-Isobutylbenzoyl)-(4-piperidin-1-ylphenyl)amino]methyl}-N-(2H-tetrazol-5-yl)benzamide]: the concentration for half-maximal inhibition (IC50) worked out at 1470 nM.

On to `O=C(Nc1nn[nH]n1)c1ccc(CN(C(=O)c2ccc(Cc3ccccc3)cc2)c2ccc(N3CCCCC3)cc2)cc1` [Example 519, 4-{[(4-Benzylbenzoyl)-(4-piperidin-1-ylphenyl)amino]methyl}-N-(2H-tetrazol-5-yl)benzamide], for which the IC50 is 908 nM.

As to `CC(C)Cc1ccc(C(=O)N(Cc2ccc(C(=O)NCCC(=O)O)cc2)c2ccc(C3CCCCC3)cc2)cc1` [Example 520, 3-(4-{[(4-Cyclohexylphenyl)-(4-isobutylbenzoyl)amino]methyl}benzoylamino)propionic acid], the concentration for half-maximal inhibition (IC50) was 1980 nM.

Consider `O=C(O)CCNC(=O)c1ccc(CN(C(=O)c2ccc(Cc3ccccc3)cc2)c2ccc(C3CCCCC3)cc2)cc1` [Example 521, 3-(4-{[(4-Benzylbenzoyl)-(4-cyclohexylphenyl)amino]methyl}benzoylamino)propionic acid], for which the IC50 is 3420 nM.

Regarding `O=C(O)CCNC(=O)c1ccc(CN(C(=O)c2ccc3c(c2)-c2ccccc2C3=O)c2ccc(C3CCCCC3)cc2)cc1` [Example 522, 3-(4-{[(4-Cyclohexylphenyl)-(9-oxo-9H-fluorene-3-carbonyl)amino]methyl}benzoylamino)propionic acid], the IC50 came out at 896 nM.

As for `CC(C)Oc1ccc(C(=O)N(Cc2ccc(C(=O)NCCC(=O)O)cc2)c2ccc(C3CCCCC3)cc2)cc1` [Example 523, 3-(4-{[(4-Cyclohexylphenyl)-(4-isopropoxybenzoyl)amino]methyl}benzoylamino)propionic acid], the half-inhibitory concentration (IC50) worked out at 2110 nM.

For the molecule `O=C(O)CCNC(=O)c1ccc(CN(C(=O)c2cccc(C(F)(F)F)c2)c2ccc(C3CCCCC3)cc2)cc1` [Example 524, 3-(4-{[(4-Cyclohexylphenyl)-(3-trifluoromethylbenzoyl)amino]methyl}benzoylamino)propionic acid], the IC50 stood at 293 nM.

For `CC(C)(C)C1CCC(N(Cc2ccc(C(=O)NCCC(=O)O)cc2)C(=O)c2ccc(Cc3ccccc3)cc2)CC1` (centres unmarked) [Example 525, 3-(4-{[(4-Benzylbenzoyl)-(4-tert-butylcyclohexyl)amino]methyl}benzoylamino)propionic acid], the IC50 stood at 669 nM.

For the molecule `CC(C)Oc1ccc(C(=O)N(Cc2ccc(C(=O)NCCC(=O)O)cc2)C2CCC(C(C)(C)C)CC2)cc1` (centres unmarked) [Example 526, 3-(4-{[(4-tert-Butylcyclohexyl)-(4-isopropoxybenzoyl)amino]methyl}benzoylamino)propionic acid], the IC50 was determined as 1700 nM.

As for `CC(C)(C)C1CCC(N(Cc2ccc(C(=O)NCCC(=O)O)cc2)C(=O)c2cccc(C(F)(F)F)c2)CC1` (centres unmarked) [Example 527, 3-(4-{[(4-tert-Butylcyclohexyl)-(3-trifluormethylbenzoyl)amino]methyl}benzoylamino)propionic acid], the IC50 was 660 nM.

On to `O=C(Nc1nn[nH]n1)c1ccc(CN(CC(c2ccccc2)c2ccccc2)C(=O)Cc2cccc(OC(F)(F)F)c2)cc1` [Example 529, 4-({(2,2-Diphenylethyl)-[2-(3-trifluoromethoxyphenyl)acetyl]amino}methyl)-N-(2H-tetrazol-5-yl)benzamide], for which the IC50 is 470 nM.

Take `CC(Oc1ccc(OC(F)(F)F)cc1)C(=O)N(Cc1ccc(C(=O)Nc2nn[nH]n2)cc1)CC(c1ccccc1)c1ccccc1` (centres unmarked) [Example 530, 4-({(2,2-Diphenylethyl)-[2-(4-trifluoromethoxyphenoxy)propionyl]amino}methyl)-N-(2H-tetrazol-5-yl)benzamide]: the IC50 was determined as 3980 nM.

The term IC50 denotes the concentration at which inhibition is half-maximal.

Values taken from patent US6875760B2 (Novo Nordisk A/S, priority 1999, dated 2005).
